In patent publication US12447136B2, “Use of (5R,7R,10R)-12,15-dioxo-α-selinene in the preparation of drugs” (KUNMING INSTITUTE OF BOTANY, CHINESE ACADEMY OF SCIENCES, priority 2020, dated 2025):

System: MPP^+-induced PC12 cell injury
Assay: Protective effect on MPP+-induced PC12 cell injury (MTS cell viability)
Experimental: 1. PC12 poorly-differentiated cells were cultured in a medium containing Dulbecco's modified Eagle's medium (DMEM) high glucose+10% fetal bovine serum (FBS)+100 U/mL penicillin-streptomycin, in an incubator at 37° C. and 5% CO2.
2. When growing to 80% to 90%, the PC12 poorly-differentiated cells were subjected to trypsin digestion to obtain a cell suspension.
3. The cell suspension was aspirated into a 15 mL centrifuge tube, followed by centrifugation at 800 rpm for 5 min.
4. After the centrifugation, the centrifuge tube was sterilized with alcohol and placed into an ultra-clean bench, and a supernatant was poured into a waste liquid tank.
5. 5 mL of a new complete medium was added, followed by blowing the medium ten times by a pipette to disperse the cells as much as possible, wherein the blowing should not be performed by too large of a force.
6. 0.02 mL of the cell suspension was taken and added to a cell counting plate for counting.
7. The cell suspension was adjusted to have a cell concentration of 1×10^5 cells/mL, then added to a 96-well plate by 0.1 mL per well, and incubated in a cell incubator.
8. After 23 h, the original medium was aspirated, and a new medium (the formula of which was the same as that in the above step 1) was added; the compound to be tested was added; and 1 h later, MPP^+ was added (a final concentration of the MPP^+ in the system was 750 μM).
9. Experimental design: each group was designed and performed for 3 repetitions:
A blank group included only medium.
A model group (MPP^+) included medium and MPP^+ which was added with a final concentration of 750 μM.
A positive control group (vitamin E) included medium, vitamin E which was added with a final concentration of 0.2 μM, and MPP^+ which was subsequently added with a final concentration of 750 μM.
10. 24 h after adding the MPP^+, MTS was added; after 2 h, values were read for detection.

Compound	protective activity against MPP^+-induced PC12 cell injury (at concentrations of 1 μM and 2 μM (P<0.001))	protective effect on MPP^+-induced PC12 cell injury (screening in the MPP^+-induced PC12 cell injury model, no concentration stated)	Cell viability (%) (0.2 μM compound or VE + 750 μM MPP^+, PC12 cells, MTS 24 h after MPP^+)
C=C(C=O)[C@@H]1CC[C@@]2(C)CCC=C(C=O)[C@@H]2C1 [PFC-37, (5R,7R,10R)-12,15-dioxo-α-selinene]	significant protective activity	significant protective effect	–
vitamin E [reference compound]	–	–	75.70 ± 0.64
